The values that follow come from patent publication US20130004579A1, “Use of Plant Lectins to Target Leukocytes” (priority 2011, published 2013).

The test system of assay [1] is Bone marrow-derived macrophages (iBMMs). The assay is described as follows: Flow cytometry uptake of lectin-conjugated NR-PS particles by live iBMMs (Example 6). Format: cell-based. The following applies: 10 minute incubation; lectin 100 μg/ml. How it is done: (§1) C57BL/6 BMDCs and iBMMs were isolated and cultured as described above at a density of 1×10^6 cells/ml in a 96 well U-bottomed plate in 100 μl complete RPMI 1640 medium with 10 ng/ml GM-CSF. Cells were stimulated for 10 or 30 minutes at 37° C. with NR-PS particles (5, 50 or 100 μg/ml) or NR-PS particles (5, 50 or 100 μg/ml) conjugated with biotinylated UEA-1 (100 μg/ml), biotinylated SBA (100 μg/ml), biotinylated PHA-E (100 μg/ml), biotinylated PHA-L (100 μg/ml) or biotinylated DSL (100 μg/ml). Cells were then scraped into FACS tubes, washed in FACS buffer, centrifuged at 1200 rpm for 5 minutes (×3) and resuspended in 200 μl of FACS buffer.
(§2) A FACSCanto™ II flow cytometer (BD Biosciences, San Jose, Calif.), FACSDiva™ software (BD Biosciences, San Jose, Calif.) and FlowJo™ software (Treestar, Inc., Ashland, Oreg.) were used to analyze the uptake of particles by various cell populations. Live cells were gated on by their FSC and SSC properties in order to estimate the degree of cell death. Particle uptake was quantified by determining the percentage of live cells taking up particles. Unstimulated cells were used as controls.

Assay [2] has as its system C57BL/6 splenocytes, macrophages (F4/80+). Description: Lectin-conjugated NR-PS particle uptake by splenocyte populations (Example 8): macrophages. Format: cell-based, mouse. The note with it: lectin 100 μg/ml; live cells. How it is done:
(§3) Splenocytes were isolated from C57BL/6 mice and cultured as described above, at a density of 2×10^6 cells/ml in a 96 well U-bottomed plate, in 100 μl of complete RPMI 1640 medium. Cells were incubated for 5, 10 or 30 minutes at 37° C. with NR-PS particles (5, 50 or 100 μg/ml) or NR-PS particles (5, 50 or 100 μg/ml) conjugated with biotinylated UEA-1 (100 μg/ml), biotinylated SBA (100 μg/ml), biotinylated PHA-E ([…]), biotinylated PHA-L (100 μg/ml) or biotinylated DSL (100 μg/ml). Cells were transferred to FACS tubes, washed in FACS buffer, centrifuged at 1200 rpm for 5 minutes (×3) and resuspended in 100 μl FACS buffer. Cells were then incubated with Fc Block™ (2.5 μg/ml; BD Pharmingen, San Diego, Calif.) for 10 minutes. Determination of cell types was achieved by labelling characteristic cell surface markers with fluorescently-labelled antibodies—T cells were determined as being CD3^+, dendritic cells CD11c^+, macrophages F4/80^+, granulocytes Gr1^+ and B cells CD19^+. Cells were incubated on ice for 30 minutes in the dark and then washed in FACS buffer and centrifuged at 1200 rpm for 5 minutes (×3). After washing, cells were resuspended in 200 μl of FACS buffer.
(§4) A CyAn™ ADP flow cytometer (Beckman Coulter, Inc., Miami, Fla.), Summit™ software (Dako North America, Inc., Carpinteria, Calif.) and FlowJo™ software (Treestar, Inc., Ashland, Oreg.) were used to analyze the uptake of particles by various cells populations. Live cells were gated on by their FSC and SSC properties in order to roughly estimate the degree of cell death. Particle uptake was calculated for each cell subtype from the data in FIGS. 11A-11D, showing the percentages of both cell marker- and particle-positive cells within the live cell population. Unstimulated cells were used as controls.

The subject of assay [3] is C57BL/6 splenocytes, T cells (CD3+). The assay is described as follows: Lectin-conjugated NR-PS particle uptake by splenocyte populations (Example 8): T cells. It counts as cell-based, mouse. The following applies: lectin 100 μg/ml; live cells. How it is done:
as §3, §4

The test system of assay [4] is C57BL/6 splenocytes, B cells (CD19+). Description: Lectin-conjugated NR-PS particle uptake by splenocyte populations (Example 8): B cells. The note with it: lectin 100 μg/ml; live cells. It counts as cell-based, mouse. The method, then:
as §3, §4

Assay [5] has as its system C57BL/6 BMDCs. Description: Flow cytometry uptake of lectin-conjugated NR-PS particles by live BMDCs (Example 6). Format: cell-based, mouse. The note with it: 30 minute incubation; lectin 100 μg/ml. The method, then:
as §1, §2
In general terms: A flow cytometer gives signals particle by particle.

Assay [6] relates to C57BL/6 splenocytes, granulocytes (Gr1+). The assay is described as follows: Lectin-conjugated NR-PS particle uptake by splenocyte populations (Example 8): granulocytes. It counts as cell-based, mouse. The note with it: lectin 100 μg/ml; live cells. The method, then: as §3, §4
The test system of assay [7] is C57BL/6 splenocytes, dendritic cells (CD11c+). Description: Lectin-conjugated NR-PS particle uptake by splenocyte populations (Example 8): dendritic cells. It counts as cell-based, mouse. The note with it: lectin 100 μg/ml; live cells. How it is done:
as §3, §4

Assay [8] relates to IL-1β production by bone marrow-derived dendritic cells (BMDCs). The assay is described as follows: IL-1β ELISA on supernatants of BMDCs incubated with particles. Format: cell-based, mouse. The note with it: C57BL/6 BMDCs; LPS 1 ng/ml; serial dilutions SC-PS 31.25 μg/ml to 1 mg/ml with lectin 1.56 to 50 μg/ml; vs unconjugated SC-PS. The method, then: (§5) BMDCs were isolated and cultured as described in Example 2 at a density of 6.25×10^5 cells/ml in 96 well U-bottomed microplates. Cells were stimulated with a Toll-like receptor (TLR) ligand (LPS or Pam2CSK4) for 6 hours. Cells were then incubated with either medium, alum/SC-PS particles, alum/SC-PS particles conjugated with UEA-1, alum/SC-PS particles conjugated with UEA-1 mimetic or with UEA-1 alone for 24 hours. After incubation, supernatants from BMDCs were collected and cytokine concentrations measured by ELISA. Antibody pairs specific for each cytokine were used for immunoassaying. The following cytokines were measured by immunoassay: IL-1α, IL-1β.
(§6) Capture antibodies were obtained from BD Pharmingen (San Diego, Calif.), BioLegend (San Diego, Calif.) and R&D Systems, Inc. (Minneapolis, Minn.) and prepared according to the manufacturer's specifications (see Table 2) and a volume of 40 μl/well added to high-binding 96 well ELISA plates. Plates were then incubated for 2 hours at 37° C. or overnight at 4° C. After incubation, plates were washed in PBS-T (×3) and tapped dry. Plates were then blocked with the appropriate blocking solution (see Table 2) and incubated for 2 hours at 37° C. After incubation plates were washed in PBS-T (×3) and tapped dry. Supernatants were transferred from cell culture plates to fresh 96 well plates. All supernatants were stored at −20° C. when not in use. Cell supernatants were applied to plates at the indicated dilutions (see Table 2). A blank triplicate was left on each plate containing the diluent as a blank. Standards were prepared at the starting concentration in the recommended diluent as specified by the manufacturer and transferred to a 96 well plate and serial dilutions (1:2) performed (see Table 2). All standards and samples were applied to plates at 40 μl/well total volume for incubation overnight at 4° C. After incubation plates were washed with PBS-T (×5) and tapped dry. […] Plates were then stopped by the addition of 20 μl/well of 1M H2SO4 and read. […]

The subject of assay [9] is IL-1α production by bone marrow-derived dendritic cells (BMDCs). The assay is described as follows: IL-1α ELISA on supernatants of BMDCs incubated with particles. Format: cell-based, mouse. The following applies: C57BL/6 BMDCs; LPS 1 ng/ml; serial dilutions SC-PS 31.25 μg/ml to 1 mg/ml with lectin 1.56 to 50 μg/ml; vs unconjugated SC-PS. How it is done: as §5, §6
Background: An ELISA detects its analyte on a solid surface through an enzyme-linked reagent.

As for “NR-PS particles conjugated with biotinylated PHA-L: Nile Red streptavidin-coated polystyrene particles conjugated with biotinylated Phaseolus vulgaris leukoagglutinin”, the “percentage of live iBMMs found to have taken up particles” value (shortened to “percentage of live iBMMs found”) in assay [1] was 79.6%. In addition, in [2], the “percentage of macrophages found to have taken up particles” value (from here on “percentage of macrophages found”) was 89.9%. Moreover, the “percentage of T cells found to have taken up particles” value (from here on “percentage of T cells found”) in assay [3] is recorded as 62.4%. Further, the “percentage of B cells found to have taken up particles” value (from here on “percentage of B cells found”) in assay [4] worked out at 80.5%. In addition, the “percentage of live BMDCs found to have taken up particles” value (from here on “percentage of live BMDCs found”) in assay [5] is 89.6%. Moreover, the “percentage of granulocytes found to have taken up particles” value (“percentage of granulocytes found” for short) in [6] is 80.7%. Besides, in assay [7], the “percentage of dendritic cells found to have taken up particles” value (shortened to “percentage of dendritic cells found”) was 79.0%.

Turning to “NR-PS particles conjugated with biotinylated PHA-E: Nile Red streptavidin-coated polystyrene particles conjugated with biotinylated Phaseolus vulgaris erthyroagglutinin”, in assay [1], the “percentage of live iBMMs found” value was 91.0%. The “percentage of macrophages found” value in assay [2] was determined as 79.4%. Moreover, the “percentage of T cells found” value in assay [3] is given as 18.1%. In addition, the “percentage of B cells found” value in [4] worked out at 45.5%. Besides, the “percentage of live BMDCs found” value in assay [5] is listed as 89.7%. The “percentage of granulocytes found” value in assay [6] is recorded as 74.0%. Also, in [7], the “percentage of dendritic cells found” value is 67.7%.

As to “NR-PS particles conjugated with biotinylated SBA: Nile Red streptavidin-coated polystyrene particles conjugated with biotinylated soybean agglutinin”, the “percentage of live iBMMs found” value in assay [1] was 93.4%. Further, in assay [2], the “percentage of macrophages found” value was 84.8%. Besides, in [3], the “percentage of T cells found” value came to 6.4%. Further, in assay [4], the “percentage of B cells found” value is given as 70.8%. Further, the “percentage of live BMDCs found” value in [5] worked out at 83.2%. For the same molecule, in assay [6], the “percentage of granulocytes found” value came to 65.6%. Besides, in [7], the “percentage of dendritic cells found” value amounted to 56.3%.

B1: PNA: SC-PS particles conjugated with biotinylated peanut agglutinin (conjugate, UniProt P02872 24-273, looked up)
Galactose-binding lectin: AETVSFNFNSFSEGNPAINFQGDVTVLSNGNIQLTNLNKVNSVGRVLYAMPVRIWSSATGNVASFLTSFSFEMKDIKDYDPADGIIFFIAPEDTQIPAGSIGGGTLGVSDTKGAGHFVGVEFDTYSNSEYNDPPTDHVGIDVNSVDSVKTVPWNSVSGAVVKVTVIYDSSTKTLSVAVTNDNGDITTIAQVVDLKAKLPERVKFGFSASGSLGGRQIHLIRSWSFTSTLITTTRRSIDNNEKKIMNMASA
modifications: biotinylated, on streptavidin polystyrene particles
notes: SC-PS particles conjugated with biotinylated peanut agglutinin
Regarding B1, the “TLR-4 agonist-primed IL-1β production” value in [8] was “increased”. The “TLR-4 agonist-primed IL-1α production” value in [9] is given as “increased IL-1α production across all five of the serial dilutions”.
